The text below walks through data of patent US8084467B2, “Pyrazole derivatives as cannabinoid receptor antagonists” (University of Connecticut, priority 2004, dated 2011).

In general, pKi refers to the Ki on a negative log10 scale, so that one unit is a factor of ten.

Assay [1] deals with T1, CB2 receptor (Mus musculus, UniProt P47936).
T1 construct: membranes were prepared from frozen mouse spleen; from tissue; host or cells: mouse spleen
As to the kind of experiment: CB2 receptor binding, mouse spleen membranes, same manner as the CB1 binding assay. The following applies: for pKi: [3H] CP-55,940; for selectivity CB2: ratio of CB1 Ki to CB2 Ki. Here is the method: Some of the inventive analogs were tested for CB2 receptor binding affinity and for CB1 receptor affinity (to determine selectivity). […] The lower the Ki value the higher the binding affinity.
(§1) The treated membranes were subsequently used in the binding assay described below. Approximately 30 μg of membranes were incubated in silanized 96-well microtiter plate with TME containing 0.1% essentially fatty acid-free bovine serum albumin (BSA), 0.8 nM [^3H] […] Radioactivity was detected using MicroScint 20 scintillation cocktail added directly to the dried filterplates, and the filterplates were counted using a Packard Instruments Top-Count. […] Data collected from three independent experiments performed with duplicate determinations was normalized between 100% and 0% specific binding for [^3H] […] The normalized data was analyzed using a 4-parameter nonlinear logistic equation to yield IC50 values.
Silanized centrifuge tubes were used throughout to minimize receptor loss due to adsorption. The CB2 binding assay was conducted in the same manner as for the CB1 binding assay. The binding affinities (Ki) were also expressed in nanomoles (nM).

Assay [2] addresses T2, CB1 cannabinoid receptor (Rattus norvegicus, UniProt P20272).
T2 construct: membranes were prepared from rat forebrain membranes; from tissue; host or cells: rat forebrain
In words: CB1 receptor binding, rat forebrain membranes, [3H] CP-55,940 displacement. The following applies: for pKi: 0.8 nM [3H] CP-55,940; for selectivity CB1: ratio of CB2 Ki to CB1 Ki. On the procedure:
Some of the inventive analogs were tested for CB2 receptor binding affinity and for CB1 receptor affinity (to determine selectivity). […] The lower the Ki value the higher the binding affinity. […]
Membranes, previously frozen at −80° C., were thawed on ice. To the stirred suspension was added three volumes of TME (25 mM Tris-HCl buffer, 5 mM MgCl2 and 1 mM EDTA) at a pH 7.4. The suspension was incubated at 4° C. for 30 min. At the end of the incubation, the membranes were pelleted and washed three times with TME.
as §1

Setting [3] is: mouse spleen membranes, read-out: affinities Ki CB2.
[4] abbreviates: rat forebrain membranes, read-out: affinities Ki CB1.
[5] abbreviates: affinities Ki CB2, mouse spleen membranes.
Where [6] appears, read: affinities Ki CB1, rat forebrain membranes.

Molecules are shown by their SMILES. pKi: −log10 of the molar value. Values joined by “and” are separate entries in the source; they are usually repeats but may differ in a detail not shown here. Identical values can stand only once. Like-named read-outs stand apart in the source and are kept apart here.

T1 sequence (P47936 whole entry): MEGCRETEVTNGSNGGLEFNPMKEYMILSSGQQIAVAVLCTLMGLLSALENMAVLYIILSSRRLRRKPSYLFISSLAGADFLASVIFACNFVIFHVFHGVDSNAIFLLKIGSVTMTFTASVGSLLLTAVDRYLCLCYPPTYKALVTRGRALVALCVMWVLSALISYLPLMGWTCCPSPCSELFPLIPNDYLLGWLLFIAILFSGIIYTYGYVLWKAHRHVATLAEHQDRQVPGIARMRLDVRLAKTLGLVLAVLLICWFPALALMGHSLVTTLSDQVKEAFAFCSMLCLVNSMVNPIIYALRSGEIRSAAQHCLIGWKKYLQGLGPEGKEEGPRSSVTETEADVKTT
T2 sequence (P20272 whole entry): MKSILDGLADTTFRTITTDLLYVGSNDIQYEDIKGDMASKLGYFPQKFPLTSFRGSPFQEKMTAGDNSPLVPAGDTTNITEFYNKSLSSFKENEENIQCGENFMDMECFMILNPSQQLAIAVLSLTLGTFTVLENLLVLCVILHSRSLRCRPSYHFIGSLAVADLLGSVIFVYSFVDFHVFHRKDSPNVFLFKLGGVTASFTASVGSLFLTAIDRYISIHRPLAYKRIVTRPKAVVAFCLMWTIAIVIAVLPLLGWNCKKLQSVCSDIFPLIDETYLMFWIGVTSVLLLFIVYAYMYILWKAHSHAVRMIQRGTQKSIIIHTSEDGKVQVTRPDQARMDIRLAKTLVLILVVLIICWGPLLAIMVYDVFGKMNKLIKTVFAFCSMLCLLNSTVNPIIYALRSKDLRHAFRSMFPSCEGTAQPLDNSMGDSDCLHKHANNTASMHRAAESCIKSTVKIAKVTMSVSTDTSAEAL

For the compound `Cc1c(C(=O)N(C)C2CCCCC2)nn(-c2ccc(Cl)cc2Cl)c1-c1ccc(-c2nnn(C)n2)cc1` [Compound 2-15], the results for the pKi in assay [1] (setting [3]) and in assay [2] (setting [4]) were 6.26 and 6.98, respectively. Also, the “selectivity CB1” value in assay [2] is given as 5.2.
On the same counts, the results for `N#Cc1ccc(-c2c(CO)c(C(=O)NN3CCCCC3)nn2-c2ccc(Cl)cc2Cl)cc1` [Compound 3-22] are 5.56, 7.19 and 42.8.
Turning to `Cc1c(C(=O)NCC23CC4CC(CC(C4)C2)C3)nn(CCCCCCl)c1-c1ccccc1` [Compound 4-5], the figures for the pKi in assay [1] (setting [5]) and in assay [2] (setting [6]) were 8.18 and 7.70, respectively. The “selectivity CB2” value in assay [1] stood at 3.
Take `Cc1c(C(O)C(O)c2ccccc2)nn(-c2ccc(Cl)cc2Cl)c1-c1ccc(Br)cc1` (stereo not drawn) [Compound 1-28]: the figures for the pKi in assay [1] (setting [5]) and in assay [2] (setting [4]) were 5.41 and 5.97, respectively. Besides, the “selectivity CB1” value in assay [2] worked out at 3.7.
For `Cc1c(C(=O)N(C)C2CCCCC2)nn(-c2ccc(Cl)cc2Cl)c1-c1ccc(-c2ccncc2)cc1` [Compound 3-6], the results for the negative logarithm of the Ki (pKi) in assay [1] (setting [3]) and in assay [2] (setting [4]) were 5.48 and 6.72, respectively. Also, the “selectivity CB1” value in assay [2] is recorded as 17.4.
The like results for `O=C(NC1CCCCC1)c1nn(-c2ccc(Cl)cc2Cl)c(-c2ccc(Br)cc2)c1CBr` [Compound 3-17] were, in that order, 5.46, 7.34 and 75.5.
The like results for `CN(C(=O)c1nn(-c2ccc(Cl)cc2Cl)c(-c2ccc(-c3ccncc3)cc2)c1CO)C1CCCCC1` [Compound 3-5] were, in that order, 6.53, 7.05 and 3.3.
Consider `Cc1c(C=CC23CC4CC(CC(C4)C2)C3)nn(-c2ccc(Cl)cc2Cl)c1-c1ccc(Br)cc1` [Compound 1-25], for which the pKi is 5.40 in assay [1] (setting [3]) and 4.75 in assay [2] (setting [4]). Moreover, the “selectivity CB2” value in assay [1] is 4.4.
Turning to `Cc1c(NC(=O)OC2CCCCC2)nn(-c2ccc(Cl)cc2Cl)c1-c1ccc(Br)cc1` [Compound 3-9], the results for the pKi in assay [1] (setting [3]) and in assay [2] (setting [4]) were 6.35 and 7.16, respectively. The “selectivity CB1” value in assay [2] is recorded as 6.5.
Regarding `CN(C)CCOCc1c(C(=O)NC2CCCCC2)nn(-c2ccc(Cl)cc2Cl)c1-c1ccc(Br)cc1` [Compound 1-16], the pKi in assay [1] (setting [3]) is 6.85; in assay [2] (setting [4]) it was 7.62. Besides, in assay [2], the “selectivity CB1” value turned out to be 5.8.
Consider `Cc1c(C(=O)NCC2CCC3CC2C3(C)C)nn(CCCCCCl)c1-c1ccccc1` (stereo not drawn) [Compound 4-8], for which the pKi in assay [1] (setting [5]) was 9.21 and 9.22; in assay [2] (setting [6]), 8.91 and 8.92. The “selectivity CB2” value in assay [1] is given as 2.
For `O=C(NC1CCCCC1)c1nn(-c2ccc(Cl)cc2Cl)c(-c2ccc(Br)cc2)c1CO` [Compound 3-18], the pKi in assay [1] (setting [3]) was 5.67; in assay [2] (setting [4]), 8.22. The “selectivity CB1” value in assay [2] stood at 353.3.
The like results for `COCc1c(C(=O)NC2CCCCC2)nn(-c2ccc(Cl)cc2Cl)c1-c1ccc(I)cc1` [Compound 1-22] were, in that order, 6.17, 7.82 and 45.
Turning to `Cc1c(CCC2CCCCC2)nn(-c2ccc(Cl)cc2Cl)c1-c1ccc(Br)cc1` [Compound 1-27], the pKi in assay [1] (setting [3]) is 4.58; in assay [2] (setting [4]) it was 5.98. Moreover, in assay [2], the “selectivity CB1” value was 25.3.
With `COCOCc1c(C(=O)N2CCCCC2)nn(-c2ccc(Cl)cc2Cl)c1-c1ccc(Br)cc1` [Compound 1-14], the pKi in assay [1] (setting [5]) is 5.51; in assay [2] (setting [4]), 6.40. The “selectivity CB1” value in assay [2] is on record as 7.8.
On to `Cn1nnc(-c2ccc(-c3c(CO)c(C(=O)NN4CCCCC4)nn3-c3ccc(Cl)cc3Cl)cc2)n1` [Compound 2-6], for which the results for the pKi in assay [1] (setting [3]) and in assay [2] (setting [4]) were 5.66 and 7.74, respectively. The “selectivity CB1” value in assay [2] was determined as 120.5.
Regarding `Cc1c(C(=O)NN2CCCCC2)nn(-c2ccc(Cl)cc2Cl)c1-c1ccc(-c2nnn[nH]2)cc1` [Compound 2-1], the negative logarithm of the Ki (pKi) in assay [1] (setting [3]) was 6.15; in assay [2] (setting [4]), 6.34. Moreover, in assay [2], the “selectivity CB1” value was found to be 1.5.
On to `O=C(NN1CCCCC1)c1nn(-c2ccc(Cl)cc2Cl)c(-c2ccc(-c3nnn[nH]3)cc2)c1CO` [Compound 2-4], for which the pKi in assay [1] (setting [3]) was 4.87; in assay [2] (setting [4]), 5.73. The “selectivity CB1” value in assay [2] amounted to 7.4.
With `Cc1c(C(=O)NN2CCCCC2)nn(-c2ccc(Cl)cc2Cl)c1-c1ccc(-c2cccc(Cl)c2)cc1` [Compound 1-1], the pKi was 6.13 in assay [1] (setting [3]) and 8.82 in assay [2] (setting [4]). The “selectivity CB1” value in assay [2] came to 491.
